Where “and” joins values, the source holds several entries; their conditions need not be identical. Equal entries are not always repeated.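 Where inhibition never reached the appropriate level, the endpoint shown equals the highest concentration tested. Otherwise, values were interpolated linearly from a five-concentration, 48-hour dose response in 96-well plates. Abbreviation: GI50, concentration required for 50% inhibition of growth. At the TGI there is no net growth.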
Tested on: MDA-MB-468 breast
Experiment: inhibition of tumour cell growth, NCI panel, 48 h

SMILES | GI50 | TGI [µM]
CC(C)(C)n1cc(-c2ccnc(NCCNS(=O)(=O)c3cccc4ccccc34)c2)c(-c2cccc(F)c2)n1 | 11 µM | 33.6
COc1cc(C2c3cc4c(cc3OC(N3CCOCC3)C2C)OCO4)cc(OC)c1OC(C)=O (stereo unspecified) | 20 µM | > 100
Nc1c(O)c(S(=O)(=O)O)c(O)c2c1C(=O)c1ccccc1C2=O | 2.1 µM | 5.98
COC1CCC(n2c([C@@H]3CCCC(=O)N3c3ccc(F)c(F)c3)nc3cc(-c4c(C)noc4C)ccc32)CC1 (stereo partly specified) | 3.95 µM | 28.4
COc1ccc2sc3c(NCCCNCCO)nc4ccccc4c3c(=O)c2c1 | 1.73 µM | 3.41
CN(C)CCCC(=O)Nc1ccc(Cn2nnc3c2C(=O)c2nnn(Cc4ccc(NC(=O)CCCN(C)C)cc4)c2C3=O)cc1 | 1.3 µM | 2.97
COc1ccc(-c2[nH]ncc2-c2cc(OC)c(OC)c(OC)c2)cc1 | < 0.01 µM | 5.56
c1ccc2c(c1)ccc1c3ccccc3ccc21 | 8.59 µM | > 50
NC(N)=Nc1ccc(Oc2ccc(Nc3ccc(Cl)c(C(F)(F)F)c3)cc2)cc1 | 1.55 µM | 3.39
CCOC(=O)c1cnc2c(cnn2CC)c1NN=C(C)C | 31.3 µM | > 100
COc1cccc(C2C(C#N)=C(N)Oc3cc(OC)ccc32)c1 (stereo unspecified) | 0.0322 µM | > 60
CN1c2ccccc2C(C)(C)C12CC(c1ccc(Cl)c(S(=O)(=O)N3CCCC3)c1)=NO2 (stereo unspecified) | > 100 µM | > 100
Cc1ccccc1NC(=O)c1sc2nc3c(cc2c1N)C(=O)CCC3 | 0.529 µM | 6.21
COc1ccc(-c2nn(-c3cccc(NC(=O)Nc4cccc(C(F)(F)F)c4)c3)cc2-c2ccncc2)cc1Cl | 1.54 µM | 6.47
C=C1C(=O)O[C@H]2[C@H]1CC/C(COC(=O)C(=O)c1cn(C)c3ccc(OC)cc13)=C\CC[C@@]1(C)O[C@@H]21 | 1.73 µM | 2.92
Nc1nc(Nc2ccc3c(c2)CCC(N2CCCC2)CC3)nn1-c1cc2c(nn1)-c1ccccc1CCC2 (stereo unspecified) | 1.4 µM | 2.9

SMILES | GI50 | TGI [µM]
CC(=O)OC1=C2C(CC3C4CC=C5CC(OC(C)=O)CCC5(C)C4CCC23C)C2C(=O)N(Cc3ccccc3)C(=O)C2C1 (stereo unspecified) | 2.84 µM | 14.9
Oc1ccc(-c2nc3ccc4[nH]ncc4c3c3c2CCCC3)c2cccnc12 | 0.787 µM | 2.02
Clc1ccc(-c2cn(-c3ccccc3)c(-c3ccccc3)n2)c(Cl)c1 | > 50 µM | > 50
CN1CCN(c2cc(Nc3cc(C4CC4)[nH]n3)nc(Nc3ccc(CC(=O)NCc4cccc(F)c4)cc3)n2)CC1 | 2.6 µM | 16.7
C#CC#CC#CC#CC#CC#CC#CC#CCC1OC[C@H](COC(=O)O[C@@H](C(=O)O[C@H]2C[C@@]3(O)[C@@H](OC(=O)c4ccccc4)[C@@H]4[C@]5(OC(C)=O)CO[C@@H]5C[C@H](O)[C@@]4(C)C(=O)[C@H](OC(C)=O)C(=C2C)C3(C)C)[C@@H](NC(=O)c2ccccc2)c2ccccc2)O1 (stereo partly specified) | 0.139 µM | 0.922
CC12CCC(O)CC1CCC1C2CCC2(C)C(C3=CC(=O)OC3)CCC12 (stereo unspecified) | 5.29 µM | > 42.9
NCC(=O)CCC(=O)O | > 100 µM | > 100
COC(=O)[C@]12CC[C@@H](C)[C@H](C)[C@@H]1C1=CC[C@@H]3[C@@]4(C)C=C(O)C(=O)C(C)=C4CC[C@@]3(C)[C@]1(C)CC2 | 9.95 µM | 26.9
CC1(C)CC[C@]2(C(=O)O)CC[C@]3(C)[C@H](CC[C@@H]4[C@@]5(C)CCC(=O)C(C)(C)[C@@H]5CC[C@]43C)[C@H]2[C@H]1OC(=O)C(F)(F)F | 5.83 µM | 21.1
CCC(C)CC(CC)NCCN1CCN(C(CC)CC(C)CC)C1=S (stereo unspecified) | 1.54 µM | 2.89
CC(C)[C@@H](CS(=O)(=O)C(C)C)N1C(=O)[C@@](C)(CC(=O)O)C[C@H](c2cccc(Cl)c2)[C@H]1c1ccc(Cl)cc1 | 11.6 µM | 45
CCCCc1nc2cc(/C=C/C(=O)NO)ccc2n1CCN(CC)CC | 0.177 µM | 1.91
COc1cc(/C=C/C(=O)c2cc(OC)c(OC)c(OC)c2)cc(OC)c1OC | 3.07 µM | 14.8
CC(C)(C)c1ccc(C(=O)Nc2sc3c(c2C(N)=O)CC/C(=N\O)C3)cc1 | 3.06 µM | 9.38
COc1ccc(Cn2cc(Cn3c(=O)c(-c4nc5ccccc5[nH]4)cc4ccccc43)nn2)c(OC)c1OC | 0.112 µM and 0.254 µM | –

Source: PubChem BioAssay (NCI)
